Data reported in patent US9534059B2, “TIKI inhibitors” (Children's Medical Center Corporation, priority 2012, dated 2017).

Columns and labels:
Assay type in all cases: in vivo
Tiki1 [1] = target: T1, Tiki1 (Xenopus tropicalis, UniProt F6PTN1); assay: Time course of Goosecoid expression in MO-injected embryos, whole mount in situ hybridization (FIG. 3G)
T1 construct: Thus the endogenous Tiki1 in the Organizer acts in both Wnt-producing and Wnt-responding cells; endogenous in cells; host or cells: Xenopus embryos (dorsal blastomeres / organizer)
T1 sequence (F6PTN1 24-480): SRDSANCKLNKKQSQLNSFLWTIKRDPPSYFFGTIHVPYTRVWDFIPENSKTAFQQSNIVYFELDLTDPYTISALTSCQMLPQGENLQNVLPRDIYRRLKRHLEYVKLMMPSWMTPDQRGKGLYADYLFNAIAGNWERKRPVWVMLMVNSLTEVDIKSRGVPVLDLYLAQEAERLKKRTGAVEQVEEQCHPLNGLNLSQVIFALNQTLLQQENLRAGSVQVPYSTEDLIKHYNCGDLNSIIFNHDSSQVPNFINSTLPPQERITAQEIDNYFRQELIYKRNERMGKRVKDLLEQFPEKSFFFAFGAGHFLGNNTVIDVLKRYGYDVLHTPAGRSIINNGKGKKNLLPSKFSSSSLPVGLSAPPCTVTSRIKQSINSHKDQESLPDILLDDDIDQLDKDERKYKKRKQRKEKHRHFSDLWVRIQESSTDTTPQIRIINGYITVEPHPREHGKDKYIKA
Experimental: (G) Tiki1MO reduced SO-specific Goosecoid expression at stage 11 but not prior to stage 10.5. Time course of Gsc expression was examined between stage 8.5 and 11. 20 ng of Tiki1MO or control MO was injected into two dorsal blastomeres at the 8-cell stage. After Injection embryos were cultured at 22° C. till indicated stages, and were subjected to whole mount in situ hybridization (vegetal view with dorsal up).
(§1) Procedures for embryo manipulation, reverse transcription PCR and in situ hybridization were performed as previously described (Tamai et al., 2000). The arrayed Xenopus tropicalis full length cDNAs (Voigt et al., 2005) were used for the screening as performed previously (Kato et al., 2002). cDNA pools (in the CS107 vector) that contain 96 independent clones were transcribed in vitro using SP6 polymerase, and the resulting mRNA pools were injected into the dorsal side of the embryo at 4-cell stage at the dose of 10 ng RNA/embryo. Injected embryos were scored at stage 30-31 for enlarged or diminished anterior development. The positive pools were divided into smaller pools and the same process was repeated till a single cDNA was identified.
(§2) The following morpholino oligonucleotides were used: Tiki1 MO: 5′-[…]-3′ (SEQ ID NO:33); standard control MO: 5′-[…]-3′ (SEQ ID NO:34) (Gene Tools, LLC). RT-PCR primers for XTiki1: Forward, 5′-[…]-3′(SEQ ID NO:35), Reverse, 5′-[…]-3′(SEQ ID NO:36); human TIKI1: Forward, 5′-[…]-3′(SEQ ID NO:37), Reverse, 5′-[…]-3′(SEQ ID NO:38); human TIKI2: Forward, 5′-[…]-3′(SEQ ID NO:39), Reverse, 5′-[…]-3′(SEQ ID NO:40).
(§3) Further, injection of Tiki1MO in two dorsal blastomeres of 8-cell stage embryos suppressed the expression of head organizer genes including Goosecoid (Gsc), Lim1, Otx2, and Dkk1 in gastrula stage embryos (stages 10.5-11) (FIG. 3D and Table 1). […] HA*Tiki1 mRNA injection rescued the effect of Tiki1MO on all head organizer genes examined (FIG. 3D and Table 1). […] Consistently, Tiki1 inhibited Xwnt8 posterizing effect when both were co-expressed dorsally via injected plasmids, which zygotically express Tiki1 and Xwnt8, respectively, after mid-blastula transition (FIG. 3H).

Tiki1 [2] = target: T1, Tiki1; assay: S01234-luciferase Wnt-responsive reporter assay in embryos with Tiki1MO knockdown; details: 20 ng MO in Xwnt8-producing or Xwnt8-responding cells
Experimental: (C) The endogenous Tiki1 acts in Wnt-producing cells. Tiki1MO or control MO (20 ng) was co-injected with CS2+Xwnt8 DNA (40 pg) into a single dorsal blastomere at the 8-cell stage, while 501234-Luciferase or S0-luciferase (100 pg) plus TK-Renilla (1.25 pg) reporter DNAs were injected into a neighboring dorsal blastomere.
(D) The endogenous Tiki1 acts in Wnt-responding cells. S01234-luciferase or S0-luciferease and TK-Renilla reporter DNAs were co-injected with Tiki1MO or control MO into a single dorsal blastomere, while CS2+Xwnt8 was injected into a neighboring dorsal blastomere. Luciferase readings were normalized to Renilla.
The same question was addressed complementarily via Tiki1MO knockdown in dorsal blastomeres whose progenies expresses Tiki1 endogenously. At the 8-cell stage, an Xwnt8 expression plasmid (which transcribes Xwnt8 after mid-blastula transition) plus the Tiki1MO (or control MO) were co-injected into a single blastomere (i.e., to knock down Tiki1 in Xwnt8-producing cells), and the S01234-luciferase plasmid was injected into the neighboring blastomere. Alternatively the Xwnt8 plasmid was injected into a single blastomere, and the 501234-luciferase reporter plus Tiki1MO or control MO was co-injected into the neighboring blastomere (i.e., to knock down Tiki1 in Xwnt8-responding cells).

Tiki1 [3] = target: T1, Tiki1; assay: Whole mount in situ hybridization of organizer gene expression in MO-injected embryos (FIGS. 3D and 3F)
Experimental: (D) Tiki1 is required for the head organizer. Mid-gastrula embryos (stage 10.5-11) were examined by whole mount in situ hybridization.
(F) Tiki1MO reduces Goosecoid expression in prechordal plate at stage 13. 20 ng of control MO, Tiki1MO or Tiki1MO plus 50 pg of HA*Tiki1 mRNA were injected into two dorsal blastomeres at the 8-cell stage. Injected embryos were subjected to whole mount in situ hybridization with the Gsc probe at stage 13 (dorsal view with anterior up).
as §1, §2, §3

[4] = gene Chd, stage 10.5-11, 20 ng MO
[5] = gene Dkk1, stage 10.5-11, 20 ng MO
[6] = gene Gsc in prechordal plate, stage 13, 20 ng MO
[7] = gene Gsc, stage 10.5-11, 20 ng MO
[8] = gene Lim1, stage 10.5-11, 20 ng MO
[9] = gene Otx2, stage 10.5-11, 20 ng MO
[10] = gene Xnot, stage 10.5-11, 20 ng MO
[11] = gene Xnr3, stage 10.5-11, 20 ng MO

Which results are given for “Tiki1 MO: morpholino antisense oligonucleotide against Tiki1, 5′-CCAAATGATTACCATCATAGCTCAG-3′ (SEQ ID NO:33) (all phosphorodiamidate morpholino (PMO))”?
Whole embryos displaying change in Goosecoid expression: Absent, Percentage (%) (Tiki1 [1]; stage 8.5, 20 ng MO): 0%; Whole embryos displaying change in Goosecoid expression: NC (No Change), Percentage (%) (Tiki1 [1]; stage 8.5, 20 ng MO): 100%; Whole embryos displaying change in Goosecoid expression: Reduced, Percentage (%) (Tiki1 [1]; stage 8.5, 20 ng MO): 0%; Whole embryos displaying change in Goosecoid expression: Absent, Percentage (%) (Tiki1 [1]; stage 9.5, 20 ng MO): 13%; Whole embryos displaying change in Goosecoid expression: NC (No Change), Percentage (%) (Tiki1 [1]; stage 9.5, 20 ng MO): 87%; Whole embryos displaying change in Goosecoid expression: Reduced, Percentage (%) (Tiki1 [1]; stage 9.5, 20 ng MO): 0%; Whole embryos displaying change in Goosecoid expression: Absent, Percentage (%) (Tiki1 [1]; stage 10, 20 ng MO): 15%; Whole embryos displaying change in Goosecoid expression: NC (No Change), Percentage (%) (Tiki1 [1]; stage 10, 20 ng MO): 85%; Whole embryos displaying change in Goosecoid expression: Reduced, Percentage (%) (Tiki1 [1]; stage 10, 20 ng MO): 0%; Whole embryos displaying change in Goosecoid expression: Absent, Percentage (%) (Tiki1 [1]; stage 10.5, 20 ng MO): 5%; Whole embryos displaying change in Goosecoid expression: NC (No Change), Percentage (%) (Tiki1 [1]; stage 10.5, 20 ng MO): 80%; Whole embryos displaying change in Goosecoid expression: Reduced, Percentage (%) (Tiki1 [1]; stage 10.5, 20 ng MO): 15%; Whole embryos displaying change in Goosecoid expression: Absent, Percentage (%) (Tiki1 [1]; stage 11, 20 ng MO): 48%; Whole embryos displaying change in Goosecoid expression: NC (No Change), Percentage (%) (Tiki1 [1]; stage 11, 20 ng MO): 27%; Whole embryos displaying change in Goosecoid expression: Reduced, Percentage (%) (Tiki1 [1]; stage 11, 20 ng MO): 25%; XWnt8 response of S01234-luciferase reporter (Tiki1 [2]): enhanced; Whole embryos displaying change in gene expression: Chd Absent, Percentage (%) (Tiki1 [3]; [4]): 0%; Whole embryos displaying change in gene expression: Chd NC (No Change), Percentage (%) (Tiki1 [3]; [4]): 64%; Whole embryos displaying change in gene expression: Chd Reduced, Percentage (%) (Tiki1 [3]; [4]): 36%; Whole embryos displaying change in gene expression: Dkk1 Absent, Percentage (%) (Tiki1 [3]; [5]): 25%; Whole embryos displaying change in gene expression: Dkk1 NC (No Change), Percentage (%) (Tiki1 [3]; [5]): 35%; Whole embryos displaying change in gene expression: Dkk1 Reduced, Percentage (%) (Tiki1 [3]; [5]): 40%; Whole embryos displaying change in gene expression: Gsc st.13 Absent, Percentage (%) (Tiki1 [3]; [6]): 35%; Whole embryos displaying change in gene expression: Gsc st.13 NC (No Change), Percentage (%) (Tiki1 [3]; [6]): 33%; Whole embryos displaying change in gene expression: Gsc st.13 Reduced, Percentage (%) (Tiki1 [3]; [6]): 32%; Whole embryos displaying change in gene expression: Gsc Absent, Percentage (%) (Tiki1 [3]; [7]): 0%; Whole embryos displaying change in gene expression: Gsc NC (No Change), Percentage (%) (Tiki1 [3]; [7]): 34%; Whole embryos displaying change in gene expression: Gsc Reduced, Percentage (%) (Tiki1 [3]; [7]): 66%; Whole embryos displaying change in gene expression: Lim1 Absent, Percentage (%) (Tiki1 [3]; [8]): 28%; Whole embryos displaying change in gene expression: Lim1 NC (No Change), Percentage (%) (Tiki1 [3]; [8]): 18%; Whole embryos displaying change in gene expression: Lim1 Reduced, Percentage (%) (Tiki1 [3]; [8]): 54%; Whole embryos displaying change in gene expression: Otx2 Absent, Percentage (%) (Tiki1 [3]; [9]): 7%; Whole embryos displaying change in gene expression: Otx2 NC (No Change), Percentage (%) (Tiki1 [3]; [9]): 33%; Whole embryos displaying change in gene expression: Otx2 Reduced, Percentage (%) (Tiki1 [3]; [9]): 60%; Whole embryos displaying change in gene expression: Xnot Absent, Percentage (%) (Tiki1 [3]; [10]): 0%; Whole embryos displaying change in gene expression: Xnot NC (No Change), Percentage (%) (Tiki1 [3]; [10]): 87%; Whole embryos displaying change in gene expression: Xnot Reduced, Percentage (%) (Tiki1 [3]; [10]): 13%; Whole embryos displaying change in gene expression: Xnr3 Absent, Percentage (%) (Tiki1 [3]; [11]): 0%; Whole embryos displaying change in gene expression: Xnr3 NC (No Change), Percentage (%) (Tiki1 [3]; [11]): 93%; Whole embryos displaying change in gene expression: Xnr3 Reduced, Percentage (%) (Tiki1 [3]; [11]): 7%
